One assay concerns HepG2. The assay can be described thus: Antiproliferative activity against human HepG2 cells by MTT assay. The assay is classed as functional, cell-based. In general terms: Formazan colour is commonly taken as a measure of viable cells.
The next assay deals with MCF7. The assay can be described thus: Antiproliferative activity against human MCF7 cells by MTT assay. The assay is classed as functional, cell-based.

Molecules are shown by their SMILES. The source made the active and inactive calls. No cut-off for these calls is given here.

Regarding `COc1c(O)c2c(c(S(=O)(=O)O)c1O)OC(c1ccc(O)cc1)CC2=O` (racemic), the result with HepG2 and in the assay on MCF7 was inactive.

Values taken from ChEMBL document CHEMBL4196204, “Sulfonic Acid-Containing Flavonoids from the Roots of Phyllanthus acidus” (J Nat Prod, 2018).
